Measured values published in patent US8927724B2, “Isoxazole beta-lactamase inhibitors” (priority 2012, dated 2015).
Where a name gives a salt, the structure may show the parent alone.

Legend:
[1] = molecular target: KPC-2 β-lactamase (Klebsiella pneumoniae, UniProt Q9F663); assay: Inhibition kinetics of KPC-2 with nitrocefin as reporter substrate; assay type: biochemical, K. pneumoniae; settings: KPC-2, 100 μM nitrocefin, 1×PBS pH 7.4, 25° C.
Procedure: Inhibition or inactivation of KPC-2 by test inhibitors was assessed using 100 μM nitrocefin (NCF) as a reporter substrate. Assays were performed in 1×PBS pH 7.4, 0.1 mg/ml BSA, in 96-well half area plates, 50 μl reaction volume. NCF was dissolved in DMSO and diluted in assay buffer. Test inhibitors were dissolved in water or DMSO and serially diluted in the assay with final concentrations between […] The enzyme activity in the presence of varying concentrations of test inhibitor was determined by monitoring the hydrolysis of NCF spectrophotometrically at 486 nm, for 5 minutes, 25° C., using a SpectraMax Plus384 microplate reader with SoftMax Pro software (Molecular Devices). Data analysis was performed using GraphPad Prism (GraphPad Software, Inc.).
Progress curves were fit to a first-order rate decay equation (Eq. 1) to determine kobserved (kobs).
kobs vs. inhibitor concentration [I] curves were then fit to Eq.2 to determine the inhibitor dissociation constant (K) and the first order rate constant of enzyme inactivation at infinite inhibitor concentration (kinact). […] Yt=V0*(1−e^(−kobs^*t))/kobs Eq. 1 Where Y is the absorbance at time t, Vo is the uninhibited enzyme velocity, kobs is the observed rate constant of the enzyme inactivation. kobs=kinact*[I]/([I]+K(1+S/Km)) Eq. 2 Where S is the NCF concentration, Km is the KPC-2 Km for NCF

[2] = tested on: bacterial strains that express KPC β-lactamases; assay: Synergy MIC / standard BLI potentiation MIC assay, strains expressing KPC β-lactamases; assay type: cell-based; settings: at least one KPC strain and/or better spectrum; in the presence of a β-lactam
Procedure: (§1) The experimental protocol was performed according to Clinical and Laboratory Standards Institute (CLSI) guidelines with modifications as described below (CLSI guidelines can be derived from the CLSI document M07-A9 published in January 2012: “Methods for Dilution Antimicrobial Susceptibility Tests for Bacteria That Grow Aerobically; Approved Standard-Ninth Edition”).
(§2) To prepare for MIC testing, frozen glycerol stocks of clinical isolates (Klebsiella pneumoniae, Eschericia coli, Enterobacter spp, Citrobacter spp, or Pseudomonas aeruginosa) were used to streak for isolated colonies on rich, non-selective, tryptic soy agar containing 5% sheep's blood (TSAB). Frozen glycerol stocks of laboratory engineered, isogenic E. coli strains, which contain cloned β-lactamase expressing plasmids were used to streak for isolated colonies on rich, selective LB agar supplemented with 25 μg/mL tetracycline to maintain the plasmid. All strains were incubated at 37° C. for 18-24 hrs.
(§3) On the day of testing, primary cultures were started by scraping off 5-10 colonies from the TSAB plates containing clinical strains or the tetracycline supplemented LB plates containing engineered strains. The clinical strain material was suspended in ˜5 mL of cation adjusted Mueller Hinton Broth (CAMHB) in 14 mL culture tubes. The engineered strain material was suspended in CAMHB (supplemented with 25 μg/mL tetracycline) in 14 mL culture tubes. All strains were incubated at 37° C. with aeration (200 rpm) for ˜2 hrs until the optical density at 600 nm (OD600) was >0.1.
(§4) The two compound components of the assay were each diluted in CAMHB and added to the 96-well broth microdilution assay plates. 50 μL of the β-lactam was added to each well of the assay plate in 2-fold dilutions with final concentrations ranging from 128 to 0.13 μg/mL. 25 μL of the BLI compound was added to all wells in the broth microdilution plates at a final concentration of 4 μg/mL. Inoculum cultures were prepared by standardizing the primary cultures to OD600=0.1 and then adding 20 μL of the adjusted primary culture per 1 mL CAMHB for clinical strains or CAMHB (supplemented with tetracycline at 100 μg/mL) for engineered strains, so that the final inoculum density was ˜10^5 colony forming units per milliliter. Diluted inoculum cultures were used to inoculate 25 μl, per well in 96-well broth microdilution assay plates. The final volume of each well was 100 μL and contained a β-lactam at different concentrations, a BLI compound at 4 μg/mL concentration, the bacterial culture at an OD600 of approximately 0.001 and when necessary tetracycline at 25 μg/mL.
(§5) Plates were incubated for 18-20 hours at 37° C. with aeration (200 rpm). Following incubation, growth was confirmed visually placing plates over a viewing apparatus (stand with a mirror underneath) and then OD600 was measured using a SpectraMax 340PC384 plate reader (Molecular Devices, Sunnyvale, Calif.). Growth was defined as turbidity that could be detected with the naked eye or achieving minimum OD600 of 0.1. MIC values were defined as the lowest concentration producing no visible turbidity.
The synergy MIC (sMIC) assay determines the concentration of the BLI required to potentiate the activity of a fixed concentration of a β-lactam antibiotic against β-lactamase producing bacterial strains. The experimental protocol was performed according to Clinical and Laboratory Standards Institute (CLSI) guidelines with modifications as described below (CLSI guidelines can be derived from the CLSI document M07-A9 published in January 2012: “Methods for Dilution Antimicrobial Susceptibility Tests for Bacteria That Grow Aerobically; Approved Standard-Ninth Edition”). […]

[3] = tested on: bacterial strains that express the class D cephalosporinase OXA-15; assay: Synergy MIC / standard BLI potentiation MIC assay, strains expressing OXA-15; assay type: cell-based, E. coli; settings: in the presence of a β-lactam; comparator Avibactam (CCC)
Procedure: as §1, §2, §3, §4, §5
The synergy MIC (sMIC) assay determines the concentration of the BLI required to potentiate the activity of a fixed concentration of a β-lactam antibiotic against β-lactamase producing bacterial strains. […]

Chain of KPC-2 β-lactamase (Q9F663 25-293 limits assumed): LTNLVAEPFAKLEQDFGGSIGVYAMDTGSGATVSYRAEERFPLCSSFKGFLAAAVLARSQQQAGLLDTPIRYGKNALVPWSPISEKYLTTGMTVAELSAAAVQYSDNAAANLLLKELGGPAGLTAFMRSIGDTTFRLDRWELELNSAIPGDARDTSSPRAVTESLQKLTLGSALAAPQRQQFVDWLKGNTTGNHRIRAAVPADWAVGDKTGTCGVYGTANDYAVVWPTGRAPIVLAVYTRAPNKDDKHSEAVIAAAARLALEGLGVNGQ

Compound	inactivation efficiency (kinact/K) [1]	activity and/or spectrum of activity against bacterial strains that express KPC β-lactamases, compared with Avibactam [2]	activity against bacterial strains that express OXA-15, compared with Avibactam [3]
NCCc1cc([C@@H]2CC[C@@H]3CN2C(=O)N3OS(=O)(=O)O)no1 [Compound 602, (2S,5R)-2-(5-(2-aminoethyl)isoxazol-3-yl)-7-oxo-1,6-diazabicyclo[3.2.1]octan-6-yl hydrogen sulfate]	1-99 mM^−s^−1	more active than Avibactam	–
N=C(N)NCCc1cc([C@@H]2CC[C@@H]3CN2C(=O)N3OS(=O)(=O)O)no1 [Compound 604, (2S,5R)-2-(5-(2-guanidinoethyl)isoxazol-3-yl)-7-oxo-1,6-diazabicyclo[3.2.1]octan-6-yl hydrogen sulfate]	–	more active than Avibactam	more active than Avibactam
CN(Cc1cc([C@@H]2CC[C@@H]3CN2C(=O)N3OS(=O)(=O)O)no1)C(=N)N [Compound 614, (2S,5R)-2-(5-((1-methylguanidino)methyl)isoxazol-3-yl)-7-oxo-1,6-diazabicyclo[3.2.1]octan-6-yl hydrogen sulfate]	–	more active than Avibactam	more active than Avibactam
O=C1N2C[C@@H](CC[C@H]2c2cc(CC3CNC3)on2)N1OS(=O)(=O)O [Compound 618, (2S,5R)-2-(5-(azetidin-3-ylmethyl)isoxazol-3-yl)-7-oxo-1,6-diazabicyclo[3.2.1]octan-6-yl hydrogen sulfate]	–	more active than Avibactam	more active than Avibactam
